A word on the Kd: it is the constant that tells how readily two partners part at equilibrium. A higher Kd goes with lower affinity. In general, IC50 refers to the concentration that gives 50% inhibition.

This note sets out measurements from patent publication EP4603105A1, “PHARMACEUTICAL COMPOSITION CONTAINING CYCLIC COMPOUND HAVING SELECTIVE KRAS INHIBITORY EFFECT AGAINST HRAS AND NRAS” (CHUGAI SEIYAKU KABUSHIKI KAISHA, priority 2022, dated 2024).

Test [1] concerns the target GDP-bound KRAS wild-type protein (Homo sapiens, UniProt P01116). The test can be described thus: Binding to KRAS by surface plasmon resonance (SPR), dissociation constant KD. To be noted: Single Cycle Kinetics. The gist of the method:
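GDP-loaded biotinylated Avi-tag RAS proteins (E. coli-expressed) captured on a Biotin CAPture chip at ~100–300 RU; single-cycle kinetics at 30°C, 100 µL/min, 75 s injections of rising compound concentrations. HBS pH 7.4 running buffer with 1 mM DTT, 10 mM MgCl2, 10 µM GDP, 4% DMSO. KD from 1:1 binding fit.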
For orientation: SPR reads the build-up and loss of mass on a sensor chip optically.

The target in test [2] is GDP-bound NRAS wild-type protein (Homo sapiens, UniProt P01111). Briefly: Binding to NRAS by surface plasmon resonance (SPR), KD and KD ratio to KRAS. To be noted: ratio of KD for GDP-bound NRAS wild-type protein to KD for KRAS. The essentials: (§1)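 Measured at 30°C: SPR with GDP-loaded, E. coli-expressed biotin-Avi RAS captured (~100–300 RU), ascending 75 s compound injections, HBS pH 7.4 with GDP, MgCl2, 4% DMSO. KD from 1:1 fit.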

For the next test, the target named is HRAS wild-type protein (Homo sapiens, UniProt P01112). Briefly: Binding to HRAS by surface plasmon resonance (SPR), KD and KD ratio to KRAS. As to conditions: ratio of KD for HRAS wild-type protein to KD for KRAS. The essentials: as §1
The test system of test [3] is human lung cancer strain NCI-H441. It is filed as cell-based. The essentials: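 Signal came from […] measured per well once the reagent was added. Beforehand, cells were cultured at 37°C and 5% carbon dioxide on a compound series serially diluted in dimethyl sulfoxide.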
The subject of test [4] is human gastric cancer strain SNU-1. The test is classed as cell-based. The gist of the method:
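SNU-1 gastric cancer cells, 250 cells/well in RPMI-1640 with 10% FBS, glucose, HEPES and sodium pyruvate, plated onto serially diluted compound in DMSO.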

Test [5] deals with human pancreatic cancer strain KP4. It is filed as cell-based. The gist of the method: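 KP4 pancreatic cancer cells seeded at 500 cells/well in DMEM/Ham's F-12 with 10% FBS onto serially diluted compound. Viability read by CellTiter-Glo luminescence.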
In test [6] the test system is human colorectal cancer strain GP2d. It is filed as cell-based. The essentials: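 Cells seeded at 500 cells/well in DMEM with 10% FBS onto serially diluted compound in DMSO, then cultured 7 days at 37°C, 5% CO2. Viability read by CellTiter-Glo luminescence.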
The subject of test [7] is human gastric cancer strain GSU. It is filed as cell-based. The essentials: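 Cells seeded at 200 per well in RPMI-1640 with 10% FBS onto serially diluted compound (DMSO) in U-bottom plates. Viability read by CellTiter-Glo luminescence.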
Test [8] deals with human ovarian cancer strain OV7. The test is classed as cell-based. The gist of the method:
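OV7 cells, 250 per well, in DMEM/Ham's F-12 with 5% FBS, 0.5 µg/mL hydrocortisone and 10 µg/mL insulin, grown 7 days at 37°C with serially diluted compound. Viability by CellTiter-Glo luminescence.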

In test [9] the test system is human bladder cancer strain UM-UC-3. The test is classed as cell-based. The gist of the method:
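UM-UC-3 human bladder cancer cells were seeded at 250 cells/well onto serially diluted compound in MEM with 10% FBS. Viability was read as CellTiter-Glo luminescence.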

Chain of GDP-bound NRAS wild-type protein (P01111 whole entry): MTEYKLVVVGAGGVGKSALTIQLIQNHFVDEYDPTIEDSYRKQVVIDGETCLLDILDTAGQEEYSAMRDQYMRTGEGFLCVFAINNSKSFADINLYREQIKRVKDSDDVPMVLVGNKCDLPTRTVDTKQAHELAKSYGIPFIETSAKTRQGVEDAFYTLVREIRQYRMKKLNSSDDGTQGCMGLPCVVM
Chain of HRAS wild-type protein (P01112 whole entry): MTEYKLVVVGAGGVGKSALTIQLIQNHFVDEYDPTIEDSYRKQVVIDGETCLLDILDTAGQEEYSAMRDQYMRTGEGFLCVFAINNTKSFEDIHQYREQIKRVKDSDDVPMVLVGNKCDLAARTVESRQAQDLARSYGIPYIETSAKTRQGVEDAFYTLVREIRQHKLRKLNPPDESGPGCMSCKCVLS
Chain of GDP-bound KRAS wild-type protein (P01116 1-188 isoform P01116-2): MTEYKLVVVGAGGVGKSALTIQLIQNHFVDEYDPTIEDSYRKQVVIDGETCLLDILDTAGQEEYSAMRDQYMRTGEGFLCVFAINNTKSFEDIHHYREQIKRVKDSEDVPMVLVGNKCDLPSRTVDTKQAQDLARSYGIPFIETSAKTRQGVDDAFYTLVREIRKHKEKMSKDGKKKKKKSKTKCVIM

Consider `CCC[C@H]1C(=O)N[C@@H]([C@@H](C)CC)C(=O)N(C)CC(=O)N(C)[C@H]2C/C=C\CCN(C2=O)[C@@H](Cc2ccc(C)cc2)C(=O)N(C)CC(=O)N[C@@H](CCc2cc(F)c(C(F)(F)F)c(F)c2)C(=O)N2CC3(CC3)C[C@H]2C(=O)N(C)C2(CCC2)C(=O)N(C)[C@@H](C2CCCC2)C(=O)N(C)[C@H](C(=O)N(C)C)CC(=O)N1C` [PP3327], for which the Kd in test [1] was 0.019 nM. The “NRAS /KRAS” value in test [2] is “A (a compound having 10 or more and less than 20 is denoted as A)”. Besides, on HRAS wild-type protein, the “HRAS /KRAS” value is “A (a compound having 10 or more and less than 20 is denoted as A)”. Also, the half-maximal inhibitory concentration (IC50) in test [3] is 4.4 nM; in test [4] it was 2.4 nM; in test [5] it was 4 nM; in [6], 0.7 nM; in test [7] it was 0.5 nM; in test [8], 1.6 nM. The compound also yielded an IC50 in test [9] of 0.6 nM.

For the compound `CCC[C@H]1C(=O)N[C@@H]([C@@H](C)CC)C(=O)N(C)CC(=O)N(C)[C@H]2C/C=C\CCN(C2=O)[C@@H](Cc2ccc(C(F)(F)F)cc2)C(=O)N(C)CC(=O)N[C@@H](CCc2cc(F)c(C(F)(F)F)c(F)c2)C(=O)N2CC3(CC3)C[C@H]2C(=O)N(C)C2(CCC2)C(=O)N(C)[C@@H](C2CCCC2)C(=O)N(C)[C@H](C(=O)N(C)C)CC(=O)N1C` [PP3356], binding in [1] was characterised by a dissociation constant (Kd) of 0.044 nM. Also, the “NRAS /KRAS” value in [2] was “A (a compound having 10 or more and less than 20 is denoted as A)”. Further, at HRAS wild-type protein, the “HRAS /KRAS” value was “A (a compound having 10 or more and less than 20 is denoted as A)”. Moreover, the IC50 in test [3] turned out to be 2.3 nM; in [4] it was 4 nM; in test [5], 4.9 nM; in test [6], 1.5 nM; in test [7], 1 nM; in [8] it was 2.5 nM. The compound also registered an IC50 in test [9] of 1.3 nM.

Turning to `CCC[C@H]1C(=O)N[C@@H]([C@@H](C)CC)C(=O)N2CCC[C@H]2C(=O)N(C)[C@H]2C/C=C\CCN(C2=O)[C@@H](Cc2ccc(C(F)(F)F)cc2)C(=O)N(C)CC(=O)N[C@@H](CCc2ccc(C(F)(F)F)c(OC)c2)C(=O)N2C[C@H](OCC)C[C@H]2C(=O)OC2(CCC2)C(=O)N(C)[C@@H](C2CCCC2)C(=O)N(C)[C@H](C(=O)N(C)C)CC(=O)N1C` [PP3368, (1S,4S,10S,13S,17S,20S,26S,28R,32S,38S,42Z)-20-cyclopentyl-28-ethoxy-32-[2-[3-methoxy-4-(trifluoromethyl)phenyl]ethyl]-N,N,2,14,18,21,36-heptamethyl-10-[(1S)-1-methylpropyl]-3,9,12,15,19,22,25,31,34,37,45-undecaoxo-13-propyl-38-[[4-(trifluoromethyl)phenyl]methyl]spiro[24-oxa-2,8,11,14,18,21,30,33,36,39-decazatetracyclo[37.5.1.0^4,8.0^26,30]pentatetracont-42-ene-23,1'-cyclobutane]-17-carboxamide], the Kd in [1] worked out at 0.57 nM. Moreover, the “NRAS /KRAS” value in [2] is “A (a compound having 10 or more and less than 20 is denoted as A)”. The “HRAS /KRAS” value at HRAS wild-type protein was “A (a compound having 10 or more and less than 20 is denoted as A)”. Further, the IC50 in [3] turned out to be 11.9 nM; in test [4] it was 20.4 nM; in test [5], 18.6 nM; in [6], 22.6 nM; in test [7], 2.8 nM; in test [8] it was 42.5 nM. Also, it took 13.9 nM to reach half-maximal inhibition in test [9] (IC50).

Consider `CCO[C@@H]1C[C@H]2C(=O)OC3(CCC3)C(=O)N(C)[C@@H](C3CCCC3)C(=O)N(C)[C@H](C(=O)N(C)C)CC(=O)N(C)[C@@H]([C@@H](C)OC)C(=O)N[C@@H]([C@@H](C)CC)C(=O)N3CCC[C@H]3C(=O)N(C)[C@H]3C/C=C\CCN(C3=O)[C@@H](Cc3ccc(C(F)(F)F)cc3)C(=O)N(C)CC(=O)N[C@@H](CCc3ccc(C(F)(F)F)c(OC)c3)C(=O)N2C1` [PP3374], for which the Kd in test [1] was determined as 0.41 nM. The “NRAS /KRAS” value in test [2] is “A (a compound having 10 or more and less than 20 is denoted as A)”. Also, the “HRAS /KRAS” value at HRAS wild-type protein is “A (a compound having 10 or more and less than 20 is denoted as A)”. For the same compound, the IC50 turned out to be 5.9 nM in [3]; 7.4 nM in test [4]; 8.2 nM in test [5]; 6.9 nM in test [6]; 1.9 nM in test [7]; 15.9 nM in test [8]. In test [9], the IC50 turned out to be 6.3 nM.

With `CCO[C@@H]1C[C@H]2C(=O)OC3(CCC3)C(=O)N(C)[C@@H](C3CCCC3)C(=O)N(C)[C@H](C(=O)N(C)C)CC(=O)N(C)[C@@H]([C@@H](C)OC)C(=O)N[C@@H]([C@@H](C)CC)C(=O)N(C)CC(=O)N(C)[C@H]3C/C=C\CCN(C3=O)[C@@H](Cc3ccc(C(F)(F)F)cc3)C(=O)N(C)CC(=O)N[C@@H](CCc3ccc(C(F)(F)F)c(OC)c3)C(=O)N2C1` [PP3376, (2S,8S,12R,14S,20S,23S,27S,30S,36S,38Z)-20-cyclopentyl-12-ethoxy-27-[(1R)-1-methoxyethyl]-8-[2-[3-methoxy-4-(trifluoromethyl)phenyl]ethyl]-N,N,4,19,22,26,32,35-octamethyl-30-[(1S)-1-methylpropyl]-3,6,9,15,18,21,25,28,31,34,42-undecaoxo-2-[[4-(trifluoromethyl)phenyl]methyl]spiro[16-oxa-1,4,7,10,19,22,26,29,32,35-decazatricyclo[34.5.1.0^10,14]dotetracont-38-ene-17,1'-cyclobutane]-23-carboxamide], the Kd in test [1] is 0.096 nM. Moreover, in [2], the “NRAS /KRAS” value is “A (a compound having 10 or more and less than 20 is denoted as A)”. The “HRAS /KRAS” value on HRAS wild-type protein was “A (a compound having 10 or more and less than 20 is denoted as A)”. For the same compound, the IC50 in test [3] worked out at 2.4 nM; in test [4] it was 4.3 nM; in [5] it was 6.8 nM; in test [6], 2.9 nM; in test [7] it was 0.6 nM; in [8], 4.3 nM. The compound further yielded an IC50 in test [9] of 2.2 nM.

The compound `CCC[C@H]1C(=O)N[C@@H]([C@@H](C)CC)C(=O)N(C)CC(=O)N(C)[C@H]2C/C=C\CCN(C2=O)[C@@H](Cc2ccc(C)cc2)C(=O)N(C)CC(=O)N[C@@H](CCc2ccc(C(F)(F)F)c(OC)c2)C(=O)N2C[C@H](OCC)C[C@H]2C(=O)OC2(CCC2)C(=O)N(C)[C@@H](C2CCCC2)C(=O)N(C)[C@H](C(=O)N(C)C)CC(=O)N1C` [PP3388, (2S,8S,12R,14S,20S,23S,27S,30S,36S,38Z)-20-cyclopentyl-12-ethoxy-8-[2-[3-methoxy-4-(trifluoromethyl)phenyl]ethyl]-N,N,4,19,22,26,32,35-octamethyl-30-[(1S)-1-methylpropyl]-3,6,9,15,18,21,25,28,31,34,42-undecaoxo-27-propyl-2-(p-tolylmethyl)spiro[16-oxa-1,4,7,10,19,22,26,29,32,35-decazatricyclo[34.5.1.0^10,14]dotetracont-38-ene-17,1'-cyclobutane]-23-carboxamide] gave a Kd in test [1] of 0.16 nM. In test [2], the “NRAS /KRAS” value is “A (a compound having 10 or more and less than 20 is denoted as A)”. The “HRAS /KRAS” value on HRAS wild-type protein was “B (a compound having 3 or more and less than 10 is denoted as B)”. For the same compound, the IC50 in [3] turned out to be 1.2 nM; in [4], 7.4 nM; in [5] it was 10.5 nM; in [6], 4.6 nM; in [7], 1.2 nM; in test [8] it was 6.7 nM. The same compound came in with an IC50 in [9] of 4.9 nM.
